Data on 10 compounds can be found in US4705799A, “Aminomethyl oxooxazolidinyl benzenes useful as antibacterial agents” (E. I. Du Pont de Nemours and Company, priority 1985, dated 1987).

In brackets after ≈: the same amount, converted by molar mass.

The subject of assay [1] is Staphylococcus epidermidis. In words: In vitro broth dilution minimal inhibitory concentration (standard microdilution method). The assay is classed as cell-based. As to conditions: 24 h, Mueller-Hinton broth, 24-hour, read-out: Microdilution Broth MIC.
The test system of assay [2] is Escherichia coli. The assay is described as above. The assay is classed as cell-based. Particulars: Escherichia coli; Mueller-Hinton broth; 24-hour; read-out: Microdilution Broth MIC.
In assay [3] the test system is Staphylococcus aureus. Nature of the assay: In vivo efficacy of orally administered compounds in mouse intraperitoneal infections. As to conditions: Staphylococcus aureus, po, 168 h, mouse i.p. Staphylococcus aureus infection; oral; dosed at infection and 4 h post-infection; 7 days; read-out: ED50 (50 percent effective dose).
Assay [4] has as its system Escherichia coli. The description is as above. As to conditions: 168 h; mouse i.p. Escherichia coli infection; oral; dosed at infection and 4 h post-infection; 7 days; read-out: ED50 (50 percent effective dose).
Assay [5] relates to Staphylococcus aureus. In words: In vivo efficacy of compounds administered subcutaneously in mouse intraperitoneal infections. Particulars: sc, 168 h; mouse i.p. Staphylococcus aureus infection; subcutaneous; dosed at infection and 4 h post-infection; 7 days; read-out: ED50 (50 percent effective dose).
In assay [6] the test system is Escherichia coli. The description is as above. Particulars: sc, 168 h; mouse i.p. Escherichia coli infection; subcutaneous; dosed at infection and 4 h post-infection; 7 days; read-out: ED50 (50 percent effective dose).

As a reminder, the MIC is the smallest concentration in the dilution series that meets the test's criterion for growth inhibition. For orientation: ED50 means the dose at which the effect has come halfway, by size or by number of responders. Take `CC(=O)NCC1CN(c2ccc(C(C)=O)cc2)C(=O)O1` (single isomer, unassigned) [Example 129, (l)-N-[3-(4-Acetylphenyl)-2-oxo-5-oxazolidinylmethyl)acetamide]: the figures for the MIC (in assay [1]; in the assay on Escherichia coli [2]) were 0.4 µg/mL (≈ 1.45 µM) and 12.5 µg/mL (≈ 45.2 µM), respectively. For the same compound, the ED50 came out at 0.7 mg/kg in the assay with Staphylococcus aureus [3], 13.6 mg/kg in the assay with Escherichia coli [4], 0.5 mg/kg in the assay on Staphylococcus aureus [5] and 14 mg/kg with Escherichia coli [6].
In the case of `CC(=O)NCC1CN(c2ccc(C(C)O)cc2)C(=O)O1` (single isomer, unassigned) [Example 130, (l)-N-[3-[4-(1-Hydroxyethyl)phenyl]-2-oxo-5-oxazolidinylmethyl]acetamide], the results for the MIC (in assay [1]; in the assay on Escherichia coli [2]) were 3.1 µg/mL (≈ 11.1 µM) and 50 µg/mL (≈ 180 µM), respectively. Moreover, the ED50 in the assay with Staphylococcus aureus [3] is 2.1 mg/kg; in the assay on Escherichia coli [4], 17.4 mg/kg; with Staphylococcus aureus [5], below 1.3 mg/kg; in the assay on Escherichia coli [6], 26.3 mg/kg.
For `CC(=O)NCC1CN(c2ccc(C(C)=NNC(C)=O)cc2)C(=O)O1` (single isomer, unassigned) [Example 132, (l)-N-[3-[4-[1-(Acetylhydrazono)ethyl]phenyl]-2-oxo-5-oxazolidinylmethyl]acetamide], the MIC is 6.2 µg/mL (≈ 18.7 µM) in assay [1] and above 200 µg/mL in the assay on Escherichia coli [2]. Moreover, the ED50 with Staphylococcus aureus [3] is below 4.4 mg/kg; in the assay on Escherichia coli [4] it was 24.7 mg/kg; with Staphylococcus aureus [5] it was 6.9 mg/kg; with Escherichia coli [6] it was above 120 mg/kg.
With `CCc1ccc(N2CC(CNC(C)=O)OC2=O)cc1` (single isomer, unassigned) [Example 133, (l)-N-[3-(4-Ethylphenyl)-2-oxo-5-oxazolidinylmethyl]acetamide], the MIC in assay [1] is 1.6 µg/mL (≈ 6.1 µM); with Escherichia coli [2] it was above 200 µg/mL. The ED50 is 3 mg/kg in the assay on Staphylococcus aureus [3], 17.9 mg/kg in the assay on Escherichia coli [4], 2.2 mg/kg with Staphylococcus aureus [5] and 15.2 mg/kg in the assay with Escherichia coli [6].
For the compound `CC(=O)NCC1CN(c2ccc([N+](=O)[O-])cc2)C(=O)O1` (single isomer, unassigned) [Example 146, (l)-N-[3-(4-Nitrophenyl)-2-oxooxazolidin-5-ylmethyl]acetamide], the MIC in assay [1] came to 2.4 µg/mL (≈ 8.59 µM); in the assay with Escherichia coli [2], 200 µg/mL (≈ 716 µM). The ED50 was 2 mg/kg in the assay with Staphylococcus aureus [3], 29.8 mg/kg in the assay with Escherichia coli [4], above 13 mg/kg in the assay with Staphylococcus aureus [5] and 40 mg/kg with Escherichia coli [6].
Consider `CC(=O)NCC1CN(c2ccc(S)cc2)C(=O)O1` (single isomer, unassigned) [Example 153, (l)-N-[3-(4-Mercaptophenyl)-2-oxooxazolidin-5-ylmethyl]acetamide], for which the MIC (in assay [1]; in the assay with Escherichia coli [2]) was above 50 µg/mL each time. In addition, the median effective dose (ED50) is 5.7 mg/kg in the assay on Staphylococcus aureus [3], 17 mg/kg in the assay on Escherichia coli [4], below 13 mg/kg with Staphylococcus aureus [5] and 57.2 mg/kg in the assay with Escherichia coli [6].
As for `CSCC(=O)c1ccc(N2CC(CNC(C)=O)OC2=O)cc1` (single isomer, unassigned) [Example 161, (l)-N-[3-[4-(Methylthioacetyl)phenyl]-2-oxo-5-oxazolidinylmethyl]acetamide], the MIC is 1.6 µg/mL (≈ 4.96 µM) in assay [1] and above 200 µg/mL with Escherichia coli [2]. In addition, the ED50 is 10.4 mg/kg with Staphylococcus aureus [3], above 120 mg/kg with Escherichia coli [4], 5.4 mg/kg in the assay on Staphylococcus aureus [5] and above 120 mg/kg with Escherichia coli [6].
Take `CC(=O)NCC1CN(c2ccc(C(C)=NNC(C)=O)cc2)C(=O)O1` (stereo not drawn) [Example 36]: the MIC in assay [1] is 25 µg/mL (≈ 75.2 µM); in the assay with Escherichia coli [2], above 200 µg/mL. The ED50 is 4.7 mg/kg in the assay on Staphylococcus aureus [3], 47.2 mg/kg in the assay on Escherichia coli [4], 7.4 mg/kg in the assay on Staphylococcus aureus [5] and above 120 mg/kg with Escherichia coli [6].
In the case of `CC(=O)NCC1CN(c2ccc(C(C)C)cc2)C(=O)O1` (stereo not drawn) [Example 38], the MIC was 9.4 µg/mL (≈ 34 µM) in assay [1] and above 200 µg/mL in the assay with Escherichia coli [2]. The ED50 was 9.1 mg/kg with Staphylococcus aureus [3], above 120 mg/kg in the assay on Escherichia coli [4], 4.8 mg/kg in the assay on Staphylococcus aureus [5] and 60.4 mg/kg in the assay with Escherichia coli [6].
With `COC(=O)NCC1CN(c2ccc(C(C)C)cc2)C(=O)O1` (stereo not drawn) [Example 39], the MIC in assay [1] was 12.5 µg/mL (≈ 42.8 µM); with Escherichia coli [2] it was above 200 µg/mL. For the same compound, the ED50 with Staphylococcus aureus [3] is 6.1 mg/kg; with Escherichia coli [4] it was above 120 mg/kg; in the assay on Staphylococcus aureus [5], 5.5 mg/kg; with Escherichia coli [6] it was above 120 mg/kg.
